Patent US8124778B2, “Tricyclic inhibitors of fatty acid amide hydrolase” (The Scripps Research Institute, priority 2007, dated 2012)

Biological target: T1, purified recombinant rat FAAH (Rattus norvegicus, UniProt P97612)
T1 construct: The truncated rat FAAH (rFAAH) was expressed in E. coli and purified as described; made in house; host or cells: E. coli
T1 sequence (P97612 30-579 limits assumed): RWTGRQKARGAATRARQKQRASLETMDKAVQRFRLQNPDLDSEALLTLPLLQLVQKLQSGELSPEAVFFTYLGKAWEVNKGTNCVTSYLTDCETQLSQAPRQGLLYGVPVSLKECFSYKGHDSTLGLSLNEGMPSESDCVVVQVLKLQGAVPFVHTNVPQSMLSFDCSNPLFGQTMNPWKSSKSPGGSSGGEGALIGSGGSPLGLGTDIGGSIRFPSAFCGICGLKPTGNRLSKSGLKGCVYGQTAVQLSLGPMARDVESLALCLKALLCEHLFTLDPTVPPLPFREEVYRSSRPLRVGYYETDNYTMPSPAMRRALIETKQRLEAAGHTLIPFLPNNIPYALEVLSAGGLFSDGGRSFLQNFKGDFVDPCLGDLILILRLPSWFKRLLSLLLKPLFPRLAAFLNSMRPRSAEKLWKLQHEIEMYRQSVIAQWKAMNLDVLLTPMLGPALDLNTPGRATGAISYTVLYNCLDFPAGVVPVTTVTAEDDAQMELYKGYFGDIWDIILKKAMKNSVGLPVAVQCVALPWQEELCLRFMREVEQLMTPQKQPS
Assay: FAAH inhibition enzyme assay (14C-oleamide hydrolysis, Dixon plot)
Format: biochemical
Conditions: rat FAAH
Method: Enzyme assays were performed at 20-23° C. with purified recombinant rat FAAH expressed in E. coli (Patricelli, M. P.; Lashuel, H. A.; et al. Biochemistry 1998, 37, 15177-15187) (unless indicated otherwise) or with solubilized COS-7 membrane extracts from cells transiently transfected with human FAAH cDNA (Giang, D. K.; Cravatt, B. F. Proc. Natl. Acad. Sci. U.S.A. 1997, 94, 2238-2242) (where specifically indicated) in a buffer of 125 mM Tris/1 mM EDTA/0.2% glycerol/0.02% Triton X-100/0.4 mM Hepes, pH 9.0 buffer (Patricelli, M. P.; Patterson, J. P.; et al. Bioorg. Med. Chem. Lett. 1998, 8, 613-618). The initial rates of hydrolysis (≦10-20% reaction) were monitored using enzyme concentrations at least three times below the measured Ki by following the breakdown of ^14C-oleamide and Ki's (standard deviations are provided in Supporting Information tables) were established as described (Dixon plot) (Boger, D. L.; Sato, H.; et al. Proc. Natl. Acad. Sci. U.S.A. 2000, 97, 5044-5049). Lineweaver-Burk analysis previously established reversible, competitive inhibition (Boger, D. L.; Miyauchi, H.; et al. J. Med. Chem. 2005, 48, 1849-1856).
FAAH Inhibition. ^14C-labeled oleamide was prepared from ^14C-labeled oleic acid as described (Cravatt, B. F.; et al. Science 1995, 268, 1506-1509). The truncated rat FAAH (rFAAH) was expressed in E. coli and purified as described (Patricelli, M. P.; Lashuel, H. A.; et al. Biochemistry 1998, 37, 15177-15187). The purified recombinant rFAAH was used in the inhibition assays unless otherwise indicated. The full-length human FAAH (hFAAH) was expressed in COS-7 cells as described (Giang, D. K.; Cravatt, B. F. Proc. Natl. Acad. Sci. U.S.A. 1997, 94, 2238-2242), and the lysate of hFAAH-transfected COS-7 cells was used in the inhibition assays where explicitly indicated.
The inhibition assays were performed as described (Cravatt, B. F.; et al. Science 1995, 268, 1506-1509). In brief, the enzyme reaction was initiated by mixing 1 nM of rFAAH (800, 500, or 200 pM rFAAH for inhibitors with Ki≦1-2 nM) with 10 μM of ^14C-labeled oleamide in 500 μL of reaction buffer (125 mM TrisCl, 1 mM EDTA, 0.2% glycerol, 0.02% Triton X-100, 0.4 mM Hepes, pH 9.0) at room temperature in the presence of three different concentrations of inhibitor. The enzyme reaction was terminated by transferring 20 μL of the reaction mixture to 500 μL of 0.1 N HCl at three different time points. The ^14C-labeled oleamide (substrate) and oleic acid (product) were extracted with EtOAc and analyzed by TLC as detailed (Cravatt, B. F.; et al. Science 1995, 268, 1506-1509). The Ki of the inhibitor was calculated using a Dixon plot as described (standard deviations are provided in the Supporting Information tables) (Boger, D. L.; Sato, H.; et al. Proc. Natl. Acad. Sci. U.S.A. 2000, 97, 5044-5049). Lineweaver-Burk analysis was performed as described confirming competitive, reversible inhibition (Boger, D. L.; Miyauchi, H.; et al. J. Med. Chem. 2005, 48, 1849-1856).

FAAH inhibitory potency (in words)	SMILES
reductions in the Ki	O=C(CCCCCCc1cccnc1)c1ncc(-c2ccccn2)o1 [5f, 1-Oxo-1-[5-(2-pyridyl)oxazol-2-yl]-7-(3-pyridyl)heptane]
reductions in the Ki	O=C(CCCCCCc1ccccn1)c1ncc(-c2ccccn2)o1 [5e, 1-Oxo-1-[5-(2-pyridyl)oxazol-2-yl]-7-(2-pyridyl)heptane]
